Source: patent US4418065A, “Halophenyl-pyridyl-allylamine derivatives and use” (priority 1979, dated 1983)
Counter-ions that a name gives are not always drawn. Like-named read-outs stand apart in the source and are kept apart here.

Experiments:
[1] = test system: neuronal uptake of 5-hydroxytryptamine; experiment: Inhibition of the uptake of ^14 C-5-HT in vivo (i.p. administration, hypothalamus slices); parameters: species or system mouse; details: for ED50: Mus musculus, ip, 0.5 h, read-out: Uptake of ^14 C-5-HT in vivo ED50; for Percentage inhibition of ^14 C-5-HT uptake at the highest dose examined: in vivo, at the highest dose examined (the > value, μmole/kg)
Procedure: (§1) The test substances were administered intraperitoneally half an hour before the animals were killed. […] The incubation time was 5 minutes with 5 minutes of preincubation before the labelled amines were added. The slices were dissolved in Soluene® and the amounts of radioactive amines taken up were determined by liquid scintillation. […] Active uptake is defined as that part of the radioactive uptake which is inhibited by a high concentration of cocaine.

[2] = test system: neuronal uptake of noradrenaline; experiment: Inhibition of the uptake of ^3 H-NA in vivo (i.p. administration, hypothalamus slices); parameters: species or system mouse; details: for ED50: Mus musculus, ip, 0.5 h, read-out: Uptake of ^3 H-NA in vivo ED50; for Percentage inhibition of ^3 H-NA uptake at the highest dose examined: in vivo, at the highest dose examined (the > value, μmole/kg)
Procedure: as §1

[3] = test system: neuronal uptake of 5-hydroxytryptamine; experiment: Inhibition of the uptake of ^14 C-5-HT in vitro (slices of mouse midbrain); assay type: biochemical; details: for EC50: in vitro, mouse brain slices, 1×10^-7 M ^14 C-5-HT, 5 min
Procedure: as §1
(§2) In the in vitro method slices of mouse midbrain were preincubated for 5 minutes with solution of the compound to be tested and then incubated as described above.

[4] = test system: neuronal uptake of noradrenaline; experiment: Inhibition of the uptake of ^3 H-NA in vitro (slices of mouse midbrain); assay type: biochemical; details: for EC50: mouse brain slices, 1×10^-7 M ^3 H-NA, 5 min
Procedure: as §1, §2

[5] = i.p., half an hour before the animals were killed, 50 percent decrease of active uptake

SMILES | ED50 [1, 5] [µmol/kg] | EC50 [3] [nM] | ED50 [2, 5] [µmol/kg] | EC50 [4] [nM] | also measured
CN(C)CC=C(c1cccnc1)c1ccc(Cl)cc1Cl [2,4-di Cl CH3 E/Z 1:1, 3-(2,4-dichlorophenyl)-N,N-dimethyl-3-(3-pyridyl)-allylamine] | 42 |  |  |  | ED50 [2]: 63 µmol/kg
CNCC=C(c1cccnc1)c1ccc(Cl)cc1Cl [2,4-di Cl H E/Z 1:1, 3-(2,4-dichlorophenyl)-N-methyl-3-(3-pyridyl)-allylamine] | 60 | 500 | 82 | 900 | 
CN(C)CC=C(c1cccnc1)c1ccccc1Br [2-Br CH3 E/Z 1:1, 3-(2-bromophenyl)-N,N-dimethyl-3-(3-pyridyl)-allylamine] | > 126 | 3500 | 79 | 2200 | 
CNCC=C(c1cccnc1)c1ccccc1Br [2-Br H E/Z 1:1, 3-(2-bromophenyl)-N-methyl-3-(3-pyridyl)-allylamine] | > 132 | 1500 |  | 1400 | ED50 [2]: 63 µmol/kg
CN(C)C/C=C(\c1ccc(Br)cc1)c1cccnc1 [4-Br CH3 E, reference compound] | > 98 |  | 25 |  | Percentage inhibition of ^14 C-5-HT uptake at the highest dose examined ([1]; i.p.): 36%
CN(C)C/C=C(/c1ccc(Br)cc1)c1cccnc1 [4-Br CH3 Z, (Z)-3-(4-bromophenyl)-N,N-dimethyl-3-(3-pyridyl)allylamine, reference compound] | 49 |  | > 98 |  | Percentage inhibition of ^3 H-NA uptake at the highest dose examined ([2]; i.p.): 26%
CNC/C=C(\c1ccc(Br)cc1)c1cccnc1 [4-Br H E, reference compound] | 102 |  | 25 |  | 
CNC/C=C(/c1ccc(Br)cc1)c1cccnc1 [4-Br H Z, reference compound] | 15 |  | > 101 |  | Percentage inhibition of ^3 H-NA uptake at the highest dose examined ([2]; i.p.): 38%
CN(C)C/C=C(\c1cccnc1)c1cccc(Cl)c1.O=C(O)C(=O)O [Example 1, (Z)-3-(3-chlorophenyl)-N,N-dimethyl-3-(3-pyridyl)allylamine oxalate] | > 110 | 2700 | > 110 | 10000 | Percentage inhibition of ^14 C-5-HT uptake at the highest dose examined ([1]; i.p.): 12%; Percentage inhibition of ^3 H-NA uptake at the highest dose examined ([2]; i.p.): 41%
CN(C)C/C=C(/c1ccc(Cl)cc1)c1cccnc1 [Example 2, (Z)-3-(4-chlorophenyl)-N,N-dimethyl-3-(3-pyridyl)allylamine oxalate] | 34 | 1100 | 46 | 1100 | 
CNC/C=C(/c1ccc(Cl)cc1)c1cccnc1.O=C(O)C(=O)O [Example 3, (Z)-3-(4-Chlorophenyl)-N-methyl-3-(3-pyridyl)allylamine oxalate] | 19 |  | 23 |  | 
CN(C)CC=C(c1ccc(F)cc1)c1cccnc1 [Example 4, 3-(4-Fluorophenyl)-N,N-dimethyl-3-(3-pyridyl)allylamine oxalate] | 115 |  | 72 |  | 
CNCC=C(c1ccc(F)cc1)c1cccnc1 [Example 5, 3-(4-Fluorophenyl)-N-methyl-3-(3-pyridyl)allylamine oxalate] | 72 |  | 29 |  | 
CN(C)C/C=C(\c1cccnc1)c1ccccc1Br [Example 6, (E)-3-(2-Bromophenyl)-N,N-dimethyl-3-(3-pyridyl)allylamine oxalate] | > 98 | 4200 | 37 | 2200 | 
CNC/C=C(\c1cccnc1)c1ccccc1Br [Example 7, (E)-3-(2-Bromophenyl)-N-methyl-3-(3-pyridyl)allylamine oxalate] | 102 | 600 | 20 | 300 | 
CNC/C=C(\c1cccnc1)c1cccc(Br)c1 [Example 8, (Z)-3-(3-Bromophenyl)-N-methyl-3-(3-pyridyl)allylamine oxalate] | > 102 | 1400 | 58 | 900 | 
CN(C)C/C=C(\c1cccnc1)c1ccc(Cl)cc1Cl [Example 9, (E)-3-(2,4-Dichlorophenyl)-N,N-dimethyl-3-(3-pyridyl)allylamine oxalate] | 43 |  | > 101 |  | 
CNC/C=C(\c1cccnc1)c1ccc(Cl)cc1Cl [Example 10, (E)-3-(2,4-Dichlorophenyl)-N-methyl-3-(3-pyridyl)allylamine oxalate] | 18 | 500 | 73 | 2300 | 
CN(C)C/C=C(/c1ccc(I)cc1)c1cccnc1.O=C(O)C(=O)O [Example 11, (Z)-3-(4-iodophenyl)-N,N-dimethyl-3-(3-pyridyl)allylamine oxalate] | 46 | 1300 | > 88 | > 22000 | selectivity of the uptake inhibition (5-HT versus NA), in words ([3]; 5-HT versus NA uptake, brain slices): completely selective inhibitor of the 5-HT uptake; Percentage inhibition of ^3 H-NA uptake at the highest dose examined ([2]; i.p.): 0%; Percentage inhibition of ^3 H-NA uptake at the highest concentration examined ([4]; at the highest concentration examined (the > value, μM)): 33%
CN(C)C/C=C(\c1cccnc1)c1cccc(Br)c1 [Example 12, 3-(3-Bromophenyl)-N,N-dimethyl-3-(3-pyridyl)allylamine oxalate] | > 98 |  | 66 |  | 
CN(C)CCCN1c2ccccc2CCc2ccccc21 [Imipramine, reference compound] |  |  |  |  | ED50 [1]: 125 µmol/kg; ED50 [2]: 63 µmol/kg
